How the values were obtained:
[1] = tested on: L. monocytogenes strain S23; test: MIC in Bioscreen after 24 h at 30° C. in laboratory medium; type: cell-based, Listeria monocytogenes; conditions: alone
Protocol: (§1) A 100,000 ppm GRE09 solution was prepared in water and filter sterilised (0.2 μm). Further dilutions were prepared in sterile deionised water at 1,250-20,000 ppm. Brain Heart Infusion broth (Oxoid) was prepared and GRE09 stock solutions were added to give the following test solutions of GRE09; 125, 250, 500, 750, 1000, 1250, 1500, 2000 ppm. […] A fully automated microbial growth analyser was used to determine microbial growth curves (Microbiology Reader Bioscreen C analyser linked to a PC with installed software BioLink v 5.30; Labsystem Oy, Finland). Tests were prepared in honeycomb 2 (HC 2) microtitre/cuvette plates with a capacity of 100 wells per plate. The wells were loaded with 270 μl of the prepared media and inoculated at a level of 10^3 CFU (colony forming units)/ml with 30 μl of microbial suspension. Incubation time and temperature was as appropriate for the test organism. This test allowed suitable test levels for the compounds to be determined. The rosemary extract and nisin were then tested in combination, using the same procedure. […] GRE09 solutions were prepared at 250, 500 and 1000 ppm as above. Combinations of all these test levels were prepared and tested in the Bioscreen as before.
(§2) Growth curves of Listeria monocytogenes and B. cereus strains in laboratory media were analysed as described above using the Bioscreen C analyser. […]

B. cereus Campden spores = test: as above; type: cell-based, Bacillus cereus; conditions: alone
Protocol: as §1, §2

[2] = tested on: Listeria monocytogenes strains 272, CRA3930 and NCTC12426; test: Kill of Listeria in chicken soup at 20° C. with nisin and rosemary extract components; type: cell-based; conditions: FIGS. 4 and 5
Protocol: The chicken soup model was used as before. The following samples were tested: GRE09, deodorised rosemary extracts containing 28% or 70% phenolic diterpenes (RE28 and RE70; Danisco), a water soluble rosemary extract containing 6% rosmarinic acid (6RA; Danisco) and pure rosmarinic acid (RA; Sigma). Additions to the soup were made as appropriate. The soup was pasteurised (70° C./2 minutes), the pH recorded and the soup was then inoculated with a cocktail of Listeria cells prepared as described before. The tests were incubated at 20° C. and viable count enumeration performed after 0, 2, 4 and 24 h at 20° C. Initial Listeria levels were 1.3×10^5 CFU/ml. The test was repeated at two nisin levels and over different time periods. The pH of the soup without addition was pH 6.06-6.20.

[3] = tested on: Listeria monocytogenes and B. cereus strains; test: In vitro synergy with nisin in Bioscreen, 24 h at 30° C.; type: cell-based, Listeria monocytogenes; Bacillus cereus; conditions: combined with nisin
Protocol: Growth curves of Listeria monocytogenes and B. cereus strains in laboratory media were analysed as described above using the Bioscreen C analyser. Minimal inhibitory concentrations (MIC) were determined for the test compounds used singly or in combination after 24 h at 30° C. […] These had been prepared by selected extraction with either organic solvents or CO2 to obtain extracts containing 28% phenolic diterpenes (28RE; Danisco) and a rosemary extract containing 6% rosmarinic acid (6RA; Danisco).

MIC in Bioscreen after 24 h at 30° C., individual components [1] [% RA]	MIC in Bioscreen after 24 h at 30° C., individual components (B. cereus Campden spores) [% RA]	SMILES	synergy with nisin in achieving kill of Listeria cells [2]	effect of the substance on nisin activity (synergy) in laboratory medium [3]
1	1	O=C(/C=C/c1ccc(O)c(O)c1)O[C@H](Cc1ccc(O)c(O)c1)C(=O)O [RA, rosmarinic acid]	evident but not as strong	Enhanced nisin activity
–	–	CC(O)CO (centres unmarked) [propylene glycol]	–	did not enhance nisin activity

Source: US10271557B2, “Composition comprising a bacteriocin and an extract from a plant of the Labiatae family” (DUPONT NUTRITION BIOSCIENCES APS, priority 2003, dated 2019)
